Several values for one entry are separate records, joined by “and”; a condition that tells them apart may be missing. Identical values can stand only once.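 Briefly, cells in 96-well plates were exposed to five compound concentrations for 48 h, and endpoints were estimated by linear interpolation. Here, GI50 denotes the concentration required for 50% inhibition of growth. Definition used: TGI = concentration required for complete inhibition of growth.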 A value given as a limit tells only on which side of the number the result lay.

Some test systems named below: BT-549 breast; DMS 114 small cell lung; HOP-18 NSCLC; HS 578T breast; KM20L2 colon; LXFL 529 NSCLC; MDA-MB-435; NCI/ADR-RES ovarian; SNB-78 CNS; T-47D breast.
Holding throughout (assay): NCI anticancer screen, dose series, 48 h

Take `CCN(CC)CCNc1ccc(CO)c2sc3ccccc3c(=O)c12`: the GI50 in the test with BT-549 breast was 6.99 µM; in the test with HOP-18 NSCLC it was 3.02 µM and 11.4 µM; in the test with HS 578T breast, 4.26 µM and 9.64 µM; in the test on MDA-MB-435 it was 2490 nM; in the test on NCI/ADR-RES ovarian, 2.99 µM and 4.29 µM and 7.25 µM; with T-47D breast, 4.84 µM. For the same molecule, the TGI was 21.9 µM and 26.9 µM in the test with BT-549 breast; 27.5 µM and 23 µM in the test on DMS 114 small cell lung; 29.7 µM and 24.6 µM with HOP-18 NSCLC; 24.8 µM and 26.8 µM in the test with HS 578T breast; 18.4 µM and 22.6 µM in the test on KM20L2 colon; 31.6 µM with LXFL 529 NSCLC. Further, the TGI with MDA-MB-435 was 7.56 µM and 11.3 µM; in the test with NCI/ADR-RES ovarian it was 17 µM and 17.3 µM and 21 µM; in the test with SNB-78 CNS, 35.1 µM and 28.4 µM; in the test on T-47D breast, 17.8 µM and 28.6 µM.
For the molecule `CCCCC/C=C1\CCC(CN2CCOCC2)C1=O` (stereo unspecified), the TGI with BT-549 breast is 32.3 µM; in the test on DMS 114 small cell lung, 38.5 µM; in the test with HOP-18 NSCLC, 27.5 µM; in the test with HS 578T breast, over 100 µM; in the test with KM20L2 colon it was 19 µM; with LXFL 529 NSCLC, 16.6 µM. Besides, the TGI came to 17.8 µM in the test on MDA-MB-435, 54.6 µM in the test on NCI/ADR-RES ovarian, 47.4 µM with SNB-78 CNS and 9.95 µM in the test on T-47D breast.
In the case of `CC(=O)C1C(=O)C(=O)N(c2ccc(Cl)cc2C)C1=O` (stereo unspecified), the TGI in the test on DMS 114 small cell lung, in the test with HOP-18 NSCLC, in the test on KM20L2 colon, in the test on LXFL 529 NSCLC and with SNB-78 CNS was over 100 µM each time.
Take `CCOC(=O)NC(=O)c1cn(-c2ccc(CCOC(=O)CCCCCCCCC(=O)OCCc3ccc(-n4cc(C(=O)NC(=O)OCC)c(=O)[nH]c4=O)cc3)cc2)c(=O)[nH]c1=O`: the TGI in the test with DMS 114 small cell lung, in the test on HOP-18 NSCLC, in the test on KM20L2 colon, with LXFL 529 NSCLC and with SNB-78 CNS was over 100 µM in each case.
Take `CN(C)CC1CCC(CN(C)C)C1=NO` (stereo unspecified): the TGI in the test on DMS 114 small cell lung, in the test with HOP-18 NSCLC, with KM20L2 colon, with LXFL 529 NSCLC and in the test with SNB-78 CNS was over 100 µM in each case.
For `COc1cc(C(C)c2cc3c(cc2OCCOCCOc2cc4c(cc2C(C)c2cc(OC)c(OC)c(OC)c2)OCO4)OCO3)cc(OC)c1OC` (stereo unspecified), the GI50 with DMS 114 small cell lung, with KM20L2 colon and with LXFL 529 NSCLC was over 100 µM in each case. Besides, the TGI is over 100 µM in the test on DMS 114 small cell lung; over 10 µM in the test with HOP-18 NSCLC; over 100 µM with KM20L2 colon; over 100 µM in the test on LXFL 529 NSCLC; over 10 µM in the test with SNB-78 CNS.
With `CCOc1ccccc1N=C(NC(=O)CC)SC`, the TGI in the test on DMS 114 small cell lung is over 10 µM; with HOP-18 NSCLC, over 10 µM; in the test with KM20L2 colon it was over 100 µM; in the test with LXFL 529 NSCLC, over 100 µM; in the test on SNB-78 CNS it was over 10 µM. The GI50 in the test on KM20L2 colon and in the test on LXFL 529 NSCLC was over 100 µM in each case.
As to `NC(N)=NS(=O)(=O)c1ccc(NC(=O)c2ccc(Cl)c3c(Nc4ccc(S(=O)(=O)N=C(N)N)cc4)c4ccccc4nc23)cc1`, the TGI with DMS 114 small cell lung, in the test with HOP-18 NSCLC, with KM20L2 colon, with LXFL 529 NSCLC and in the test on SNB-78 CNS was over 100 µM each time.
As to `CP(=O)(CCSc1ccccc1)c1ccccc1` (stereo unspecified), the TGI in the test on DMS 114 small cell lung, in the test on HOP-18 NSCLC, in the test with KM20L2 colon, in the test with LXFL 529 NSCLC and in the test with SNB-78 CNS was over 100 µM in each case.
Consider `c1ccc2c(c1)[Se]c1ccccc1[Se]2`, for which the TGI with DMS 114 small cell lung is over 100 µM; in the test with HOP-18 NSCLC, 98.6 µM; in the test on KM20L2 colon it was over 100 µM; in the test with LXFL 529 NSCLC it was over 100 µM; with SNB-78 CNS it was over 100 µM.
As to `CCCC(=O)C(CC)/C(CCC(=O)N(Cc1ccccc1)Cc1ccccc1)=N/NC(=O)C[N+](C)(C)C` (stereo unspecified), the TGI in the test on DMS 114 small cell lung, with HOP-18 NSCLC, with KM20L2 colon, in the test with LXFL 529 NSCLC and in the test with SNB-78 CNS was over 100 µM throughout.

These data come from PubChem BioAssay (NCI).
